Reference: PMC4519256, “Expanding the Described Metabolome of the Marine Cyanobacterium Moorea producens JHB through Orthogonal Natural Products Workflows” (PLoS ONE, 2015)

How the values were obtained:
[1] = system: voltage-gated sodium channels; assay: Antagonism of veratridine-stimulated Na+ influx in neocortical neurons (SBFI); type: cell-based, Swiss-Webster mice; details: for IC50: primary mouse neocortical neurons, three-parameter logistic fit
Protocol: (§1) Primary cultures of neocortical neurons were obtained from embryonic day 16 Swiss-Webster mice as described elsewhere. Briefly, pregnant mice were euthanized by CO2 asphyxiation and embryos were removed under sterile conditions. Neocortices were collected, stripped of meninges, minced by trituration with a Pasteur pipette, and treated with trypsin for 25 min at 37°C. The cells were then dissociated by two successive trituration and sedimentation steps in soybean trypsin inhibitor and DNase containing isolation buffer, centrifuged, and resuspended in Eagle’s minimal essential medium with Earle’s salt (MEM) and supplemented with 1 mM L-glutamine, 10% fetal bovine serum, 10% horse serum, 100 IU/mL penicillin, and 0.10 mg/mL streptomycin (pH 7.4). Cells were plated onto poly-L-lysine-coated 96-well (9 mm), clear-bottomed, black-well culture plates (MidSci, St. Louis, USA) at a density of 1.5 × 10^5 cells/well. Cells were then incubated at 37°C in a 5% CO2 and 95% humidity atmosphere. The culture media was changed every other day, starting from day 5 in-vitro using a serum-free growth medium containing Neurobasal Medium supplemented with B-27, 100 IU/mL penicillin, 0.10 mg/mL streptomycin, and 0.2 mM L-glutamine. Neocortical cultures were used in experiments between 10–11 days in-vitro. All animal use protocols were approved by the Institutional Animal Care and Use Committee (IACUC) of Creighton University.
[Na^+]i measurement and full in-situ calibration of sodium-binding benzofuran isophthalate (SBFI) fluorescence ratio were performed as described previously. Cells grown in 96-well plates were washed four times with Locke's buffer using an automated microplate washer (BioTek Instruments, Winooski, VT). After measuring the background fluorescence of each well, cells were incubated for 1 h at 37°C with dye-loading buffer (100 μL/well) containing 10 μM SBFI-AM (Invitrogen) and 0.02% Pluronic F-127 (Invitrogen). Cells were washed five times with Locke's buffer, leaving a final volume of 150 μL in each well. Jamaicamide addition and preincubation was as described above for Ca^2+ concentration determination. […] Fluorescence readings were taken once every 5 s for 60 s to establish the baseline, then either vehicle (control) or veratridine was added and fluorescence was monitored for an additional 260 s. After correcting for background fluorescence, SBFI fluorescence ratios (340/380) and concentration-response graphs were generated.
(§2) The Fluo-3 and SBFI raw fluorescence emission data were exported to an Excel work sheet. The Fluo-3 fluorescence or SBFI fluorescence ratios (340/380) versus time were analyzed and concentration-response graphs generated using GraphPad Prism software (GraphPad Software Inc., San Diego, CA).

[2] = system: veratridine-stimulated Ca2+ influx in neocortical neurons; assay: Antagonism of veratridine-stimulated Ca2+ influx in neocortical neurons (fluo-3); type: cell-based, Swiss-Webster mice; details: for IC50: Neuron, primary mouse neocortical neurons, three-parameter logistic fit
Protocol: as §1
Cells grown in 96-well plates were used for determination of intracellular Ca^2+ concentration ([Ca^2+]i). Briefly, the growth medium was removed and replaced with dye-loading medium (100 μL per well) containing 4 μM fluo-3 AM and 0.04% pluronic acid in Locke's buffer. […] The cells were incubated in the presence or absence of jamaicamides for 5–7 minutes at 37°C in a 5% CO2 and 95% humidity atmosphere prior to transfer to a FLEX Station II (Molecular Devices) benchtop scanning fluorescence chamber. The fluorescence measurements were performed at 37°C. The cells were excited at 488 nm and Ca^2+-bound fluo-3 emission was recorded at 538 nm at 2 s intervals. After recording baseline fluorescence for 60 s, either vehicle or veratridine was added to each well at a rate of 26 μL/s; the fluorescence was then monitored for an additional 200 s.
as §2

sodium channel = details: at a concentration of 5 μM, Neuro-2a cells; cited from earlier work
[3] = system: human small cell lung cancer (NCI-H187) cell line; design: method as in PMID 15974628; details: cited from earlier work
[4] = system: human carcinoma of the nasopharynx (KB) cell line; design: method as in PMID 15974628; details: cited from earlier work
actin = system: actin; design: method as in PMID 12088429; details: cited from earlier work

SMILES: C#CCCC/C(=C\Cl)CCC(C)/C=C/CCC(=O)NCC/C(=C\C(=O)N1C(=O)C=C[C@@H]1C)OC (stereo partly drawn) [compound 3, jamaicamide B]
- IC50 [1]: 3600 nM
- IC50 [2]: 6880 nM
- Sodium channel blocking activity (sodium channel): sodium channel blocking activity

SMILES: CC1C(=O)OC(C(C)(C)O)c2nc(cs2)C(=O)OC(C)(C)C(O)c2nc(cs2)C(=O)OC1CCCC(C)(Cl)Cl (stereo not drawn) [compound 5, Hectochlorin B]
- LD50 [3]: 0.32 µM
- LD50 [4]: 0.31 µM

SMILES: CC(=O)O[C@@H]1c2nc(cs2)C(=O)O[C@@H](CCCC(C)(Cl)Cl)[C@H](C)C(=O)O[C@@H](C(C)(C)O)c2nc(cs2)C(=O)OC1(C)C [compound 1, hectochlorin]
- Effect on actin polymerization (actin): enhances actin polymerization
- LD50 [3]: 1.20 µM
- LD50 [4]: 0.86 µM

SMILES: CO/C(=C/C(=O)N1C(=O)C=C[C@@H]1C)CCNC(=O)CC/C=C/C(C)CC/C(=C/Cl)CCCC#CBr (stereo partly drawn) [compound 2, jamaicamide A]
- IC50 [1]: 1100 nM
- Potency relative to the other two jamaicamides as a sodium channel blocker (Na+ influx) ([1]; versus 3 and 12, neocortical neurons): 2-3 times
- IC50 [2]: 1820 nM
- Potency relative to the other two jamaicamides tested (Ca2+ influx) ([2]; versus 3 and 12): 2–3 times
- Sodium channel blocking activity (sodium channel): sodium channel blocking activity

SMILES: COC(=CC(=O)N1C(=O)C=CC1C)CCNC(=O)CCC=CC(C)CCC(=CCl)CCCC#CI (stereo not drawn) [compound 12, jamaicamide F]
- IC50 [1]: 2300 nM
- IC50 [2]: 4300 nM
